From patent publication US7173019B2, “Linked cyclitols and their polysulfated derivatives” (The Australian National University, priority 2001, dated 2007) come the findings set out here.

Assay [1] has as its target aFGF (Homo sapiens, UniProt P05230). Put plainly: Biacore biosensor: inhibition of aFGF binding to immobilised heparin and heparan sulfate. Particulars: inhibitor 0.034 μM, aFGF 0.025 μM. How it is done:
(§1) Assays were performed using a Biacore™ 2000 optical biosensor obtained from Biacore AB, Uppsala, Sweden. The biosensor was operated in accordance with the manufacturer's instructions. Briefly, neutravidin was covalently coupled to the surface of CM5 chips of the biosensor and then either biotinylated heparin (1 μg/ml) or biotinylated heparan sulfate ([…]) bound to the immobilised neutravidin. Mixtures of a test compound and a growth factor or other effector compound were preincubated for 2 to 5 minutes and the mixtures then added to individual biosensor cuvettes. Binding of growth factor or effector compound to the heparin or heparan sulfate was then monitored for approximately 5 minutes with the biosensor.
(§2) The tabulated values are the IC50 in μM or % inhibition of binding of the growth factor to the immobilised heparan sulfate (HS) or heparin.

Assay [2] concerns the target bFGF (Homo sapiens, UniProt P09038). In words: Biacore biosensor: inhibition of bFGF binding to immobilised heparin and heparan sulfate. The note with it: for Inhibition of binding of bFGF (HS) / Inhibition of binding of bFGF (Hep) / inhibition at 0.034 µM: inhibitor 0.034 μM, bFGF 0.034 μM. How it is done: as §1, §2
For orientation: Surface plasmon resonance follows binding to a sensor surface in real time, without labels.

The target in assay [3] is T1, VEGF (Homo sapiens, UniProt P15692).
T1 sequence (P15692 27-191 isoform P15692-4): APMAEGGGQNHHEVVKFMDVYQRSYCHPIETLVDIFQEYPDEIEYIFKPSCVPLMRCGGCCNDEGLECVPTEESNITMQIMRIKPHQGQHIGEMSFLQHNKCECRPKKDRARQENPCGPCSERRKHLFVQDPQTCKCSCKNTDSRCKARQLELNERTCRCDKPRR
Put plainly: Biacore biosensor: inhibition of VEGF binding to immobilised heparin and heparan sulfate. The note with it: inhibitor 0.034 μM, VEGF 0.025 μM. How it is done:
as §1, §2

Assay [4] has as its target T2, human platelet heparanase (Homo sapiens, UniProt Q9Y251).
T2 construct: 10 ng of purified human platelet heparanase; from tissue; host or cells: human platelets
T2 sequence (Q9Y251 158-543 limits assumed): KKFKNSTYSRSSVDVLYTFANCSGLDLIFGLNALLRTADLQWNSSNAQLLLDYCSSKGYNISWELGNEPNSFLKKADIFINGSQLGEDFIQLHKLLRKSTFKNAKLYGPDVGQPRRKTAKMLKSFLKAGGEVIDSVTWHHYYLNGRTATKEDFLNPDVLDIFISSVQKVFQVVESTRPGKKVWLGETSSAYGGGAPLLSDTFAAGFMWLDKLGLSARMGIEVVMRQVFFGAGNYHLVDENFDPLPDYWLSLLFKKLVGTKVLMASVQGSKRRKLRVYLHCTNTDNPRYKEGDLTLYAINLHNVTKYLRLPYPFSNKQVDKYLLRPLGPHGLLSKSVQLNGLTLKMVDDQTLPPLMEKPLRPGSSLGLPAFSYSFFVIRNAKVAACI
T2 sequence (Q9Y251 36-109 limits assumed): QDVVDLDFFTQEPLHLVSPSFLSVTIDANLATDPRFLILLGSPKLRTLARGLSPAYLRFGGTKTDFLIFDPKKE
Put plainly: Heparanase inhibition, 3H-radiolabelled HS cleavage assay. Format: biochemical. Particulars: for EC50: heparanase inhibition. How it is done:
Briefly, to an incubation mixture of […] containing ^3H-radiolabelled porcine mucosal HS […], 50 mM-sodium acetate buffer, pH 5.0, […] bovine serum albumin and the inhibitor to be tested, was added 10 ng of purified human platelet heparanase and the mixture incubated for 30 min. The reaction was terminated by freezing the assay tubes. The substrate was separated from the cleavage products on minicolumns of sepharose-bound histidine-rich glycoprotein (Freeman, C., and Parish, C. R. [1997], supra).
Inhibitory activity is based on a comparison with heparin with 100% inhibition at 30 μg/ml. The compounds were also tested at the same purity as in Example 15.

Assay [5] relates to rat aorta fragments. Put plainly: In vitro angiogenesis inhibition assay. The assay is classed as cell-based. The note with it: control 90. How it is done:
The ability of linked cyclitol compounds to inhibit angiogenesis in vitro was conducted using the assay essentially as described in the present applicant's International Patent Application No. PCT/AU95/00105 (Publication No. WO 95/23968), the entire content of which is incorporated herein by cross reference. The only changes to the procedure described in PCT/AU95/00105 were that the assays were conducted using rat aorta fragments rather than human placental vessel fragments.
All potential inhibitors were tested at 100 μg/ml with PI-88 also being tested at 10 μg/ml. The tabulated data represent means of 4 culture wells for each experiment. Significant inhibition of angiogenesis is indicated with a single asterisk while double asterisks denote highly significant inhibition.
The compounds were also tested at the same purity as in Example 15 save that the second entries for 4b and 4j relate to data obtained with higher purity compounds than the compounds used for the first data entries of each.

Assay [6] deals with T3, IL-8 (Homo sapiens, UniProt P10145).
T3 sequence (P10145 21-99): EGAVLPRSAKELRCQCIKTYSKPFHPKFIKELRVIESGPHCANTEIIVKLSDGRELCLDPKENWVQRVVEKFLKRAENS
Put plainly: Biacore biosensor: inhibition of IL-8 binding to immobilised heparin and heparan sulfate. Particulars: inhibitor 1.0 μM, IL-8 0.068 μM. How it is done:
as §1

Assay [7] has as its target T4, human leukocyte Cathepsin G (Homo sapiens, UniProt P08311).
T4 construct: human leukocyte Cathepsin G (100 ng protein); from tissue; host or cells: human leukocytes
T4 sequence (P08311 21-244): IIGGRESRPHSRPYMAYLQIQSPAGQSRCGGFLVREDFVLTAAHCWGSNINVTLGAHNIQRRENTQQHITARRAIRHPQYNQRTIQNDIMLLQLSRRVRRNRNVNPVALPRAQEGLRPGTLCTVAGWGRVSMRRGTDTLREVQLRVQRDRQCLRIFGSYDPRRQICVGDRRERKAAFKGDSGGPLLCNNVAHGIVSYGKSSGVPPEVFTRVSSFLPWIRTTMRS
In words: Cathepsin G inhibition, fluorogenic substrate, 96 well assay. The assay is classed as biochemical. The note with it: human leukocyte cathepsin G 100 ng, 37° C., 60 min, pH 6.6. How it is done: Cathepsin G activity was determined using a 96 well assay format in PVC microtitre U-bottom plates with activity determination by a fluorescence plate reader. Briefly, within a total incubation volume of 40 μl, human leukocyte Cathepsin G (100 ng protein) was added to a mixture of inhibitor and the fluorogenic substrate MeOSuc-ala-ala-pro-phe-AMAC in 50 mM-NaOAc buffer, pH 6.6 containing 50 mM NaCl and 0.1% (v/v) Brij 35. The mixture was incubated at 37° C. for 60 min, the reaction stopped by the addition of 40 μl of 250 mM acetic acid and the fluorescence determined with excitation at 360 nm and emitted light measured at 460 nm.
In this table, the linked cyclitol compound identifications are the same as those given in Section A above where the structures of the compounds are also given. With regard to the purity rating, a greater number of asterisks signifies a greater degree of purity with five asterisks signifying an essentially pure compound. The cathepsin G inhibition data are the concentrations of compounds required to inhibit the enzyme by 50%.

Where [8] appears, read: immobilised heparan sulfate, read-out: IC50, inhibition of bFGF binding (HS).
The mark [9] stands for this setting: immobilised heparin, read-out: IC50, inhibition of bFGF binding (Hep).
Setting [10] is: based on a comparison with heparin with 100% inhibition at 30 μg/ml.
[11] abbreviates: inhibitor 100 μg/ml, means of 4 culture wells per experiment, * significant, ** highly significant inhibition.

Like-named read-outs stand apart in the source and are kept apart here.

Chain of aFGF (P05230 whole entry, species assumed): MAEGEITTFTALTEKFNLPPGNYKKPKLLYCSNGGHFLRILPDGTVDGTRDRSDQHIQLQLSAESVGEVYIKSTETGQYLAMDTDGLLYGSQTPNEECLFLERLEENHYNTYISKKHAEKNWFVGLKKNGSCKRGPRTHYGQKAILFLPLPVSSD
Chain of bFGF (P09038 134-288 limits assumed, species assumed): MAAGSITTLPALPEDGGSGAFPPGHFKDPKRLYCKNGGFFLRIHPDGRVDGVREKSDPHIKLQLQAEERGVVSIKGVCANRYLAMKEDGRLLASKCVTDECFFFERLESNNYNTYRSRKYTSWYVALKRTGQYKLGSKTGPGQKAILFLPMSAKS

The term EC50 denotes the concentration at which the effect is half-maximal. Consider “phosphomannopentaose sulfate [PI-88, reference compound]”, for which the “Inhibition of binding of aFGF (HS)” value in assay [1] (immobilised heparan sulfate) was 33% (HS). Besides, in assay [1] (immobilised heparin), the “Inhibition of binding of aFGF (Hep)” value is given as 96% (Hep). The “Inhibition of binding of bFGF (HS)” value in assay [2] (immobilised heparan sulfate) was 56% (HS). Also, the IC50 is 25 nM in assay [2] (setting [8]) and 34 nM in assay [2] (setting [9]). Also, the “Inhibition of binding of bFGF (Hep)” value in assay [2] (immobilised heparin) is on record as 50% (Hep). Besides, the “Inhibition of binding of VEGF (HS)” value in assay [3] (immobilised heparan sulfate) is 65% (HS). For the same compound, the “Inhibition of binding of VEGF (Hep)” value in assay [3] (immobilised heparin) is reported as 29% (Hep). Moreover, the “Inhibition (%) at 10 μg/ml” value in assay [4] (10 μg/ml) is listed as 90%. In addition, the “Relative inhibition (%)” value in assay [4] (setting [10]) is reported as 100%. In assay [4], this compound showed an EC50 of 2.9 µg/mL. Besides, the “% Growth” value in assay [5] (inhibitor 10 μg/ml, * significant inhibition) is 64* %; in assay [5] (setting [11]), 45** %. In assay [6] (immobilised heparan sulfate), the “Inhibition of binding of IL-8 (HS)” value was 0%. Moreover, the “Inhibition of binding of IL-8 (Hep)” value in assay [6] (immobilised heparin) is reported as 10%.

On to `O=S(=O)(O)OC1C(OS(=O)(=O)O)C(OS(=O)(=O)O)C(N(Cc2ccc(CN(C3C(OS(=O)(=O)O)C(OS(=O)(=O)O)C(OS(=O)(=O)O)C(OS(=O)(=O)O)C3OS(=O)(=O)O)C3C(OS(=O)(=O)O)C(OS(=O)(=O)O)C(OS(=O)(=O)O)C(OS(=O)(=O)O)C3OS(=O)(=O)O)cc2)C2C(OS(=O)(=O)O)C(OS(=O)(=O)O)C(OS(=O)(=O)O)C(OS(=O)(=O)O)C2OS(=O)(=O)O)C(OS(=O)(=O)O)C1OS(=O)(=O)O` (stereo not shown) [Compound 5e], for which the “% Growth” value in assay [5] (setting [11]) is 60* %.

Take `O=S(=O)(O)OC1C(OS(=O)(=O)O)C(OS(=O)(=O)O)C(N(Cc2cccc(CN(C3C(OS(=O)(=O)O)C(OS(=O)(=O)O)C(OS(=O)(=O)O)C(OS(=O)(=O)O)C3OS(=O)(=O)O)C3C(OS(=O)(=O)O)C(OS(=O)(=O)O)C(OS(=O)(=O)O)C(OS(=O)(=O)O)C3OS(=O)(=O)O)c2)C2C(OS(=O)(=O)O)C(OS(=O)(=O)O)C(OS(=O)(=O)O)C(OS(=O)(=O)O)C2OS(=O)(=O)O)C(OS(=O)(=O)O)C1OS(=O)(=O)O` (stereo not shown) [Compound 5d]: in assay [1] (immobilised heparan sulfate), the “Inhibition of binding of aFGF (HS)” value is on record as 67% (HS). Moreover, the “Inhibition of binding of aFGF (Hep)” value in assay [1] (immobilised heparin) is 72% (Hep). Besides, the “Amount for 50% inhibition” value in assay [7] came out at 0.53 µg/mL. Besides, in assay [2] (immobilised heparan sulfate), the “Inhibition of binding of bFGF (HS)” value is listed as 48% (HS). In addition, the IC50 came out at 38 nM in assay [2] (setting [8]) and 160 nM in assay [2] (setting [9]). Also, the “Inhibition of binding of bFGF (Hep)” value in assay [2] (immobilised heparin) is given as 35% (Hep). Also, the “Inhibition of binding of VEGF (HS)” value in assay [3] (immobilised heparan sulfate) is recorded as 39% (HS). Further, the “Inhibition of binding of VEGF (Hep)” value in assay [3] (immobilised heparin) is listed as 54% (Hep). In addition, the “Relative inhibition (%)” value in assay [4] (setting [10]) is reported as 100%. The EC50 in assay [4] is 6 µg/mL. In assay [6] (immobilised heparan sulfate), the “Inhibition of binding of IL-8 (HS)” value is given as 62% (HS). Besides, the “Inhibition of binding of IL-8 (Hep)” value in assay [6] (immobilised heparin) is reported as 71% (Hep).

`O=S(=O)(O)O[C@H]1[C@H](OS(=O)(=O)O)[C@@H](N(CCCN([C@H]2C=C[C@@H](OS(=O)(=O)O)[C@@H](OS(=O)(=O)O)[C@@H]2OS(=O)(=O)O)[C@H]2C=C[C@@H](OS(=O)(=O)O)[C@@H](OS(=O)(=O)O)[C@@H]2OS(=O)(=O)O)[C@H]2C=C[C@@H](OS(=O)(=O)O)[C@@H](OS(=O)(=O)O)[C@@H]2OS(=O)(=O)O)C=C[C@H]1OS(=O)(=O)O` [Compound 4a]: the inhibition at 0.034 µM in assay [1] (immobilised heparan sulfate, read-out: Inhibition of binding of aFGF (HS)) was found to be 73%; in assay [1] (immobilised heparin, read-out: Inhibition of binding of aFGF (Hep)), 74%; in assay [2] (immobilised heparan sulfate, read-out: Inhibition of binding of bFGF (HS)) it was 29%; in assay [2] (immobilised heparin, read-out: Inhibition of binding of bFGF (Hep)) it was 20%; in assay [3] (immobilised heparan sulfate, read-out: Inhibition of binding of VEGF (HS)) it was 4%; in assay [3] (immobilised heparin, read-out: Inhibition of binding of VEGF (Hep)), 5%. The IC50 in assay [7] (read-out: Amount for 50% inhibition (converted)) is 162 nM; in assay [2] (setting [8]), 110 nM; in assay [2] (setting [9]), over 250 nM. Also, the inhibition in assay [4] (based on a comparison with heparin with 100% inhibition at 30 μg/ml, read-out: Relative inhibition (%)) was 60%. Moreover, the EC50 in assay [4] (read-out: EC50 (converted)) was 16200 nM. For the same compound, the inhibition at 10 µg/mL in assay [4] (read-out: Inhibition (%) at 10 μg/ml) worked out at 37%. The inhibition at 1 µM came out at 38% in assay [6] (immobilised heparan sulfate, read-out: Inhibition of binding of IL-8 (HS)) and 48% in assay [6] (immobilised heparin, read-out: Inhibition of binding of IL-8 (Hep)).
